Test results taken from the NIST ThermoML archive (doi:10.1021/je1009976).
± gives the expanded uncertainty stated by the source.

How the values were obtained:
[1] = xn = mol fraction of the nth substance listed; details: 101 kPa, Liquid, x2 = 0; for viscosity: Capillary tube (Ostwald / Ubbelohde) method; for mass density: Pycnometric method
[2] = 101 kPa, Liquid; for viscosity: Capillary tube (Ostwald / Ubbelohde) method; for mass density: Pycnometric method

SMILES | viscosity ([1]; 303.15 K) [mPa·s] | viscosity ([1]; 308.15 K) [mPa·s] | mass density ([1]; 308.15 K) [kg/m3] | viscosity ([1]; 313.15 K) [mPa·s] | viscosity ([1]; 318.15 K) [mPa·s] | mass density ([1]; 318.15 K) [kg/m3] | viscosity ([1]; 323.15 K) [mPa·s] | viscosity ([2]; 303.15 K) [mPa·s] | mass density ([2]; 303.15 K) [kg/m3] | viscosity ([2]; 308.15 K) [mPa·s] | mass density ([2]; 308.15 K) [kg/m3] | viscosity ([2]; 313.15 K) [mPa·s] | mass density ([2]; 313.15 K) [kg/m3] | viscosity ([2]; 318.15 K) [mPa·s] | mass density ([2]; 318.15 K) [kg/m3] | viscosity ([2]; 323.15 K) [mPa·s] | mass density ([2]; 323.15 K) [kg/m3]
O [water] + OCCOCCO | 0.801 ± 0.4 | 0.722 | 994.12 ± 0.39 | 0.656 | 0.598 | 990.3 ± 0.44 | 0.549 | – | – | – | – | – | – | – | – | – | –
OCCOCCO [diethylene glycol] | – | – | – | – | – | – | – | 22.16 ± 0.46 | 1109.48 ± 0.75 | 17.93 ± 0.44 | 1105.72 ± 0.75 | 14.71 ± 0.43 | 1102.11 ± 0.76 | 12.19 ± 0.42 | 1098.35 ± 0.76 | 10.19 ± 0.41 | 1094.94 ± 0.75
